Measured values as given in patent US12509530B2, “Single domain antibodies directed against intracellular antigens” (Singh Molecular Medicine, LLC, priority 2015, dated 2025).
Values joined by “and” are separate entries in the source; they are usually repeats but may differ in a detail not shown here. Equal entries are not always repeated. Blank lines part the entries; values can stand above or below the molecule they belong to. Numbered stars: 1 amine (or outer) side, 2 acyl side, 3 side chain; on linkers, the order of the positions; unused ones are H or OH. Bridge positions count the residues as written; N and C are the ends. Square brackets hold non-standard residues; d marks the D form. Peptide text beside a SMILES is read from it. I, II: the chains in the order shown. Actinocin(9to1) = Cc1c2oc3c(C)ccc(C(=O)[*:1])c3nc-2c(C(=O)[*:2])c(N)c1=O; NMeV = CN[C@H](C(=O)O)C(C)C; Sar = CNCC(=O)O

How the values were obtained:
PANC-1 cells = assay: MTT proliferation assay, PANC-1; settings: Homo sapiens, PANC-1, 72 h
SJSA-1 xenograft [1] = settings: mouse, in vivo
SJSA-1 xenograft [2] = assay: SJSA-1 bone osteosarcoma subcutaneous xenograft model; settings: SBT-100 5.0 mg/kg BIDx14, Doxorubicin 7.0 mg/kg days 1, 8, 14, IP
MDA-MB-231 cells = assay: MTT proliferation assay, MDA-MB-231; type: cell-based, human; settings: test article cloudy; cells lost normal morphology
Human recombinant TNF-α = biological target: T1, Human recombinant TNF-α (Homo sapiens, UniProt P01375); assay: Inhibition of TNF-α cytotoxicity in L929 cells (MTS/PMS); type: cell-based, mouse
T1 construct: purchased Sigma-Aldrich
T1 sequence (P01375 77-233 limits assumed): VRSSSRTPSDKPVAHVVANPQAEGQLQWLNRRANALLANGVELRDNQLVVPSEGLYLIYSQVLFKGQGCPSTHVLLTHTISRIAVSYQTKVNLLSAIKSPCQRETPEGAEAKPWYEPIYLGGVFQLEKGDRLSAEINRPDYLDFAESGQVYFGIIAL

STAT3 = STAT3 reporter GloResponse SIE-luc2P/HEK293 assay, IL-6 induction; type: cell-based, human; settings: 24 and 48 hours treatment
[3] = biological target: T2, active human TNF-α full length protein (Homo sapiens, UniProt P01375); assay: TNF-α binding ELISA; settings: for detection in coated vs non-coated wells: 0.5 μg/mL coating antigen; for detection / binding to the TNF-α protein: Experiment 1
T2 construct: active human TNF-α full length protein; purchased Abcam
T2 sequence (P01375 77-233 limits assumed): as above
Method: In this Example, the binding of anti-TNF-α sdAbs to active human TNF-α full length protein was assessed using an enzyme linked immunosorbent assay (ELISA) format. Additionally, the feasibility of utilizing a secondary antibody targeted to the his tag portion of the sdAbs was assessed.
The test articles for this study were anti-TNF-α VHH62 (SEQ ID NO:47) sdAb, TNF-α VHH66 (SEQ ID NO:45) sdAb, and anti-TNF-α VHH69 (SEQ ID NO:46) sdAb (Experiment 1).
For the assays to assess the binding of the sdAbs to TNF-α protein (Experiment 1, 4 and 5), a standard sandwich ELISA format was utilized. […] Plates were incubated overnight at 2-8° C. After the incubation, plates were washed (3×) and blocked (3% Bovine Serum Albumin (BSA) in Phosphate Buffered Saline (PBS)) for at least one hour at room temperature.
After removal of the blocking buffer and washing (3×), samples were added to the appropriate wells of the ELISA plates and incubated at room temperature with shaking (150 rpm) for at least one hour. The secondary antibody (rabbit anti-llama biotinylated antibody at either a1:5,000 or 10,000 dilution) was then added to each well and incubated with shaking for at least one hour at room temperature.
After the incubation with secondary antibody, the plates were again washed (3×) and horseradish peroxidase (HRP) at either a 1:25,000 or 1:50,000 dilution was added to each well. Plates were incubated with shaking for at least one hour at room temperature. A final wash (3×) was performed followed by the addition of TMB (Tetramethylbenzidine) substrate. After a 20 to 25 minute incubation at room temperature, stop solution was added to halt the colorimetric reaction. The absorbance at 450 nm was measured on a VersaMax instrument utilizing SoftMax Pro GxP version 5.4 software from Molecular Devices (Sunnyvale, CA).
The final experiment performed was to confirm that the results from the ELISA testing were due to binding to the TNF-α protein and not non-specific binding of the sdAb. For this determination, a comparison was made between wells coated with 0.5 μg/mL of coating antigen and non-coated wells. […] This experiment confirms that the detection seen with the previous experiments was due to the specific binding of the VHH to the coating antigen and not due to non-specific binding.

Molecule: Nc1ccn([C@@H]2O[C@H](CO)[C@@H](O)C2(F)F)c(=O)n1 [Gemcitabine]
inhibition at 0.313 µM (PANC-1 cells; read-out: % Inh, Gemcitabine Hydrochloride (Biovision #1759) 0.313 μM, 72 hours): 0%
inhibition at 0.625 µM (PANC-1 cells; read-out: % Inh, Gemcitabine Hydrochloride (Biovision #1759) 0.625 μM, 72 hours): 2%
inhibition at 5 µM (PANC-1 cells; read-out: % Inh, Gemcitabine Hydrochloride (Biovision #1759) 5 μM, 72 hours): 36%
inhibition at 10 µM (PANC-1 cells; read-out: % Inh, Gemcitabine Hydrochloride (Biovision #1759) 10 μM, 72 hours): 46%

Molecule: COc1cccc2c1C(=O)c1c(O)c3c(c(O)c1C2=O)C[C@@](O)(C(=O)CO)C[C@@H]3O[C@H]1C[C@H](N)[C@H](O)[C@H](C)O1 [Doxorubicin, reference compound]
number of surviving at the end of the study (SJSA-1 xenograft [1]; Hsd: Athymic Nude-Fox1nu): 2
Are the survival curves sig different? (SJSA-1 xenograft [1]): Yes
Tumor measurement, individual animals (SJSA-1 xenograft [2]; day 8 post implant): 0.00 mm^3
Tumor measurement, Mean Abs (SJSA-1 xenograft [2]; day 13 post implant): 70.72 mm^3
Tumor measurement, individual animals (SJSA-1 xenograft [2]; day 23 post implant): 116.85 mm^3

Molecule: MPT His Tag: anti-STAT3 VHH13 (SBT-100) preparation produced by Microprotein Technologies, His tagged
inhibition compared with the other SBT-100 preparations (MDA-MB-231 cells): greatest inhibition

Molecule: TNFa
% Toxicity, Sample Replicate # (Human recombinant TNF-α; Assay 1 control, TNFa 0.5 μg/mL): 101.9% and 101.6% and 101.8% (3×) and 102.1% (4×) and 102.6% and 102.7% and 101.7%

Molecule: CC(=O)c1cc2c(o1)C(=O)c1ccccc1C2=O [BB1608, napabucasin, reference compound]
effect on IL-6 induction of the reporter (STAT3): Inhibition of IL-6

Molecule: Cc1c2oc3c(C)ccc(C(=O)N[C@@H]4C(=O)N[C@H](C(C)C)C(=O)N5CCC[C@H]5C(=O)N(C)CC(=O)N(C)[C@@H](C(C)C)C(=O)O[C@@H]4C)c3nc-2c(C(=O)N[C@@H]2C(=O)N[C@H](C(C)C)C(=O)N3CCC[C@H]3C(=O)N(C)CC(=O)N(C)[C@@H](C(C)C)C(=O)O[C@@H]2C)c(N)c1=O [Actinomycin D] (I: T[dV]P[Sar][NMeV] / II: T[dV]P[Sar][NMeV]; ester I:1-I:C, II:1-II:C; linker I:N-II:N via Actinocin(9to1))
% Toxicity, Sample Replicate # (Human recombinant TNF-α; Assay 1 control, Actinomycin D only (no TNFα)): 5.4% and 2.3% and 3.5% and 0% (8×)
% Toxicity, Sample Replicate # (Human recombinant TNF-α; Assay 2 control, Actinomycin D only (no TNFα)): 0%

detection / binding to the TNF-α protein ([3]; 1 μg/mL sdAb): little to no detection
B1: anti-TNF-α VHH69: anti-TNF-α sdAb, SEQ ID NO:46 (TNF_69, SEQ ID NO: 64) (protein)
VHH: EVQLVESGGGSVLAGGSLRLSCVASGFTSRYNYMAWFRQAPGKEREGVATIGTASGSADYYGSVKDRFTISQDNAKNTVYLQMNSLKPEDTAMYYCAARTYGTISLTPSDYRYWGQGTLVTVSS
modifications: Camelid
detection in coated vs non-coated wells ([3]; 1 μg/mL sdAb): detected in coated wells but not in non-coated wells
effect on IL-6 induction of the reporter (STAT3): enhancement of the IL-6 induction

B2: anti-STAT3 VHH14: anti-STAT3 single domain antibody, SEQ ID NO:4 (same sequence as STAT3_14, SEQ ID NO: 8) (protein)
VHH: QVQLVESGGGSVQAGGSLRLSCVASTYTGCMGWFRQAPGKEREGVAALSSRGFAGHYTDSVKGRFSISRDYVKNAVYLQMNTVKPEDAAMYYCAAREGWECGETWLDRTAGGHTYWGQGTLVTVSS
modifications: Camelid
effect on IL-6 induction of the reporter (STAT3): enhancement of the IL-6 induction

detection / binding to the TNF-α protein ([3]; 1 μg/mL sdAb): little to no detection
OD values ([3]; Experiment 4, 10-fold serial dilutions, old and new batch): < 0.2 OD450
OD450 Values, Non-Coated ([3]; non-coated wells (non-specific binding), 1 μg/mL sdAb): −0.001
B3: anti-TNF-α VHH62: anti-TNF-α sdAb, SEQ ID NO:47 (TNF_62, SEQ ID NO: 66) (protein)
VHH: QVQLVESGGGPVQAGETLRLSCTASGFTFAEADMGWYRQAPGHECELVSTITTEGITSEASSYYADSVRGRFTISRDNAKNMVYLQMNSLKPEDTAVYYCAPDPYAYSTYSDYCSWAQGTQGTLVTVSS
modifications: Camelid
detection in coated vs non-coated wells ([3]; 1 μg/mL sdAb): not detected in either coated or non-coated wells
